From patent US5453369A, “Enzyme for producing novel cyclooisomaltooligosaccharides” (Kikkoman Corporation, priority 1992, dated 1995)

Key:
[1] = system: Glucodextranase, i.e. exo-type dextranase; assay: enzymatic hydrolysis with glucodextranase (exo-type dextranase); format: biochemical; conditions: 1% solution; FIG. 2
Source text: 10. Glucodextranase, i.e. exo-type dextranase, was allowed to act on the present compounds (1% solution), but they were not hydrolyzed at all as shown in FIG. 2.

[2] = discoloration / decomposition temperature (melting point measuring instrument); format: physicochemical; conditions: definite melting points could not be determined
Source text: 3. The definite melting points of the present compounds could not be determined in a melting point measuring instrument manufactured by Yanagimoto Co., Ltd. Their discoloration temperature ranges together with decomposition temperatures are as follows: […]

| SMILES | hydrolysis by glucodextranase [1] | discoloration temperature ranges together with decomposition temperatures [2] |
| --- | --- | --- |
| OC[C@H]1O[C@H](OC[C@H]2O[C@H](OC[C@H]3O[C@H](OC[C@H]4O[C@H](OC[C@H]5O[C@H](OC[C@H]6O[C@H](OC[C@H]7OC(O)[C@H](O)[C@@H](O)[C@@H]7O)[C@H](O)[C@@H](O)[C@@H]6O)[C@H](O)[C@@H](O)[C@@H]5O)[C@H](O)[C@@H](O)[C@@H]4O)[C@H](O)[C@@H](O)[C@@H]3O)[C@H](O)[C@@H](O)[C@@H]2O)[C@H](O)[C@@H](O)[C@@H]1O (some centres unmarked) [isomaltoheptaose] | completely hydrolyzed | – |
| O[C@@H]1[C@@H](O)[C@H]2OC[C@H]3O[C@H](OC[C@H]4O[C@H](OC[C@H]5O[C@H](OC[C@H]6O[C@H](OC[C@H]7O[C@H](OC[C@H]8O[C@H](OC[C@@H](O2)[C@H]1O)[C@H](O)[C@@H](O)[C@@H]8O)[C@H](O)[C@@H](O)[C@@H]7O)[C@H](O)[C@@H](O)[C@@H]6O)[C@H](O)[C@@H](O)[C@@H]5O)[C@H](O)[C@@H](O)[C@@H]4O)[C@H](O)[C@@H](O)[C@@H]3O [Cycloisomaltoheptaose, cycloisomaltoheptaose] | – | 234-238 °C |
| O[C@@H]1[C@@H](O)[C@H]2OC[C@H]3O[C@H](OC[C@H]4O[C@H](OC[C@H]5O[C@H](OC[C@H]6O[C@H](OC[C@H]7O[C@H](OC[C@H]8O[C@H](OC[C@H]9O[C@H](OC[C@@H](O2)[C@H]1O)[C@H](O)[C@@H](O)[C@@H]9O)[C@H](O)[C@@H](O)[C@@H]8O)[C@H](O)[C@@H](O)[C@@H]7O)[C@H](O)[C@@H](O)[C@@H]6O)[C@H](O)[C@@H](O)[C@@H]5O)[C@H](O)[C@@H](O)[C@@H]4O)[C@H](O)[C@@H](O)[C@@H]3O [Cycloisomaltooctaose, cycloisomaltooctaose] | – | 238-241 °C |
| O[C@@H]1[C@@H](O)[C@H]2OC[C@H]3O[C@H](OC[C@H]4O[C@H](OC[C@H]5O[C@H](OC[C@H]6O[C@H](OC[C@H]7O[C@H](OC[C@H]8O[C@H](OC[C@H]9O[C@H](OC[C@H]%10O[C@H](OC[C@@H](O2)[C@H]1O)[C@H](O)[C@@H](O)[C@@H]%10O)[C@H](O)[C@@H](O)[C@@H]9O)[C@H](O)[C@@H](O)[C@@H]8O)[C@H](O)[C@@H](O)[C@@H]7O)[C@H](O)[C@@H](O)[C@@H]6O)[C@H](O)[C@@H](O)[C@@H]5O)[C@H](O)[C@@H](O)[C@@H]4O)[C@H](O)[C@@H](O)[C@@H]3O [Cycloisomaltononaose, cycloisomaltononaose] | – | 239-242 °C |
| OC[C@H]1O[C@H](OC[C@H]2O[C@H](OC[C@H]3O[C@H](OC[C@H]4O[C@H](OC[C@H]5O[C@H](OC[C@H]6OC(O)[C@H](O)[C@@H](O)[C@@H]6O)[C@H](O)[C@@H](O)[C@@H]5O)[C@H](O)[C@@H](O)[C@@H]4O)[C@H](O)[C@@H](O)[C@@H]3O)[C@H](O)[C@@H](O)[C@@H]2O)[C@H](O)[C@@H](O)[C@@H]1O (some centres unmarked) [isomaltohexaose] | completely hydrolyzed | – |
